Measured values: US12458640B2, “Pyrazolo[3,4-b]pyrazine SHP2 phosphatase inhibitors” (OTSUKA PHARMACEUTICAL CO., LTD., priority 2019, dated 2025)
Structures can show the parent of a compound that is named as a salt.

Key:
SHP2 = SHP2 (Homo sapiens (Human), UniProt Q06124); experiment: Shp2 Biochemical Assay (DiFMUP conversion); conditions: for IC50: 10 pM SHP2, activating peptide pIRS1, DiFMUP substrate, average where more than one data point
Method: SHP2 activity was monitored by measuring the conversion of the surrogate substrate 6,8-difluoromethylumbelliferyl phosphate (DiFMUP) to the fluorescent product, 6,8-difluoromethylumbelliferone (DiFMU).
SHP2 was pre-incubated with test compounds and the activating peptide pIRS1 (H2N-LN(pY)IDLDLV-(PEG)8-LST(pY)ASINFQK-amide) for 30 min, prior to addition of the 6,8-difluoromethylumbelliferyl phosphate (DiFMUP), (Thermo Fisher D6567). Final assay concentrations were 10 pM SHP2, 0.25 μM pIRS1 peptide, 50 μM DiFMUP, 25 mM Bis-Tris propane, pH 7.0, 150 mM NaCl, 0.05% (v/v) Tween-20, 0.5 mM TCEP and 5% (v/v) DMSO. Rates of reaction were then measured over 30 min by monitoring fluorescence on a BMG Pherastar reader at excitation 360 nm/emission 450 nm. IC50 values were calculated from the normalized dose-response plots using four parameter logistic curve fit.

pERK = experiment: Cellular pERK Inhibition Assay (phospho-p44/42 MAPK sandwich ELISA); assay type: cell-based; conditions: Homo sapiens; HCC827 cells, 0.5 hours compound treatment; average where more than one data point
Method: Cellular pERK Inhibition Assay
HCC827 cells (ATCC, Manassas, USA) were seeded into 96-well plates at a density of 1×10^5 cells/well in RPMI medium supplemented with 10% FBS and incubated 24 h. Compounds were diluted first in DMSO and then into serum-free medium, before being added to cells in triplicate to give a final concentration of 0.1% DMSO. Plates were incubated at 37° C. for 0.5 hours in a humidified atmosphere of 5% CO2 in air.
Following compound treatment, medium was removed and cells were lysed by adding 50 μL of lysis buffer (Cell Signalling Technology, Beverly, USA) to each well. Plates were then incubated at room temperature for 25 minutes with shaking. pERK levels were measured in lysates using the PathScan® phospho-p44/42 MAPK (Thr202/Tyr204) sandwich ELISA (Cell Signalling Technology, Beverly, USA) as per kit instructions. Briefly, 50 μL of cell lysate was added to 50 μL of ELISA sample diluent in a 96-well ELISA plate and incubated overnight at 4° C. Following washing, 100 μL of detection antibody was added per well and the plates incubated for 1 hour at 37° C. Plates were washed again and incubated at 37° C. for 30 minutes with 100 μl of HRP-linked secondary antibody per well. After final washing, 100 μL per well of TMB substrate was added and plates incubated at 37° C. to develop colour. Colour development was stopped by the addition of 100 μL per well of stop solution. Plates were read at 450 nm on a SpectraMax Gemini reader (Molecular Devices, Uckfield, UK).
The average signal from blank wells (no cells added) was subtracted from the signals from each sample well. Levels of pERK were then expressed as “percent of control”, using DMSO treated samples as control. Dose response curves were generated using GraphPad Prism Version 6 (GraphPad Software, La Jolla, USA) and fitted using the four parameter logistic curve fit.

SMILES | IC50 (SHP2) [nM] | IC50 (pERK) [nM] | inhibition at 0.03 µM (SHP2; at 0.030 μM, read-out: SHP2 % inhibition at given concentration) [%]
Cc1nc2c(-c3ccc4ncc(N(C)C)nc4c3Cl)n[nH]c2nc1N1CCC2(CC1)COC[C@H]2N [Example 11, (4S)-8-{3-[5-chloro-3-(dimethylamino)quinoxalin-6-yl]-5-methyl-1H-pyrazolo[3,4-b]pyrazin-6-yl}-2-oxa-8-azaspiro[4.5]decan-4-amine] | – | 32 | 66
Cc1nc2c(-c3ccc4nn(C)c(Cl)c4c3Cl)n[nH]c2nc1N1CCC2(CCC[C@H]2N)CC1 [Example 15, (1R)-8-[3-(3,4-dichloro-2-methyl-2H-indazol-5-yl)-5-methyl-1H-pyrazolo[3,4-b]pyrazin-6-yl]-8-azaspiro[4.5]decan-1-amine] | 7.6 | 59 | –
COc1cnc2ccc(-c3n[nH]c4nc(N5CCC6(CCC[C@H]6N)CC5)c(C)nc34)c(Cl)c2n1 [Example 14, (1R)-8-[3-(5-chloro-3-methoxyquinoxalin-6-yl)-5-methyl-1H-pyrazolo[3,4-b]pyrazin-6-yl]-8-azaspiro[4.5]decan-1-amine] | 13 | 150 | –
Cc1nc2c(-c3ccc4ncc(N(C)C)nc4c3Cl)n[nH]c2nc1N1CCC2(CCC[C@H]2N)CC1 [Example 12, 7-(6-[(1R)-1-amino-8-azaspiro[4.5]decan-8-yl]-5-methyl-1H-pyrazolo[3,4-b]pyrazin-3-yl}-8-chloro-N,N-dimethyl-quinoxalin-2-amine] | 15 | 33 | –

Further lines, results first:

IC50 (SHP2) [nM] | IC50 (pERK) [nM] | inhibition at 0.03 µM (SHP2; at 0.030 μM, read-out: SHP2 % inhibition at given concentration) [%] | SMILES
18 | 45 | – | COc1cnc2ccc(-c3n[nH]c4nc(N5CCC6(CC5)CO[C@@H](C)[C@H]6N)c(C)nc34)c(Cl)c2n1 [Example 9, (3S,4S)-8-[3-(5-chloro-3-methoxyquinoxalin-6-yl)-5-methyl-1H-pyrazolo[3,4-b]pyrazin-6-yl]-3-methyl-2-oxa-8-azaspiro[4.5]decan-4-amine hydrochloride]
11 | 8.4 | – | COc1cnc2ccc(-c3n[nH]c4nc(N5CCC6(CC5)CO[C@@H](C)[C@H]6N)c(CO)nc34)c(Cl)c2n1 [Example 22, {6-[(3S,4S)-4-amino-3-methyl-2-oxa-8-azaspiro[4.5]decan-8-yl]-3-(5-chloro-3-methoxyquinoxalin-6-yl)-1H-pyrazolo[3,4-b]pyrazin-5-yl}methanol]
15 | 5.7 | – | Cc1c2c(Cl)c(-c3n[nH]c4nc(N5CCC6(CC5)CO[C@@H](C)[C@H]6N)c(CO)nc34)ccc2nn1C [Example 21, {6-[(3S,4S)-4-amino-3-methyl-2-oxa-8-azaspiro[4.5]decan-8-yl]-3-(4-chloro-2,3-dimethyl-2H-indazol-5-yl)-1H-pyrazolo[3,4-b]pyrazin-5-yl}methanol]
